From patent US20220281848A1, “PYRAZOLE-SUBSTITUTED PYRROLIDINONES AS HERBICIDES” (FMC Corporation, priority 2019, published 2022)

Legend:
Type in all cases: in vivo
Settings in all cases: after 13 d
[1] = system: corn (Zea mays, ZEAMX); assay: Test A pre-emergence, corn
Outline: (§1)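 Each compound is applied pre-emergence at 15.625, 62.5 or 250 g/ha, one day after seeds are sown in standard soil. Plants are then grown in a glasshouse at 24/16° C. with 14 h light and 65% humidity, and injury is scored 0–100 at 13 d.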

[2] = system: giant foxtail (Setaria faberi, SETFA); assay: Test A pre-emergence, giant foxtail
Outline: as §1

[3] = system: barnyardgrass (Echinochloa crus-galli, ECHCG); assay: Test A pre-emergence, barnyardgrass
Outline: as §1

[4] = system: ivy-leaved morning glory (Ipomoea hederacea, IPOHE); assay: Test A pre-emergence, ivy-leaved morning glory
Outline: as §1

[5] = system: redroot pigweed (Amaranthus retroflexus, AMARE); assay: Test A pre-emergence, redroot pigweed
Outline: as §1

[6] = system: velvetleaf (Abutilon theophrasti, ABUTH); assay: Test A pre-emergence, velvetleaf
Outline: as §1

[7] = system: corn (Zea mays, ZEAMX); assay: Test A post-emergence, corn
Outline: (§2)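 Visual damage at 13 d after treatment, rated from 0 (no damage) to 100 (total damage). Eight-day-old pot-grown plants had been sprayed with 15.625, 62.5 or 250 g/ha of compound in aqueous acetone (50:50) containing 0.5% Tween 20.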

[8] = system: giant foxtail (Setaria faberi, SETFA); assay: Test A post-emergence, giant foxtail
Outline: as §2

[9] = system: barnyardgrass (Echinochloa crus-galli, ECHCG); assay: Test A post-emergence, barnyardgrass
Outline: as §2

[10] = system: ivy-leaved morning glory (Ipomoea hederacea, IPOHE); assay: Test A post-emergence, ivy-leaved morning glory
Outline: as §2

[11] = system: redroot pigweed (Amaranthus retroflexus, AMARE); assay: Test A post-emergence, redroot pigweed
Outline: as §2

[12] = system: velvetleaf (Abutilon theophrasti, ABUTH); assay: Test A post-emergence, velvetleaf
Outline: as §2

| SMILES | damage to plant (100=total damage; 0=no damage) ZEAMX ([1]; Pre-Emergence at 62.5 g/ha) | damage to plant (100=total damage; 0=no damage) ZEAMX ([1]; Pre-Emergence at 250 g/ha) | damage to plant (100=total damage; 0=no damage) SETFA ([2]; Pre-Emergence at 62.5 g/ha) | damage to plant (100=total damage; 0=no damage) SETFA ([2]; Pre-Emergence at 250 g/ha) | damage to plant (100=total damage; 0=no damage) ECHCG ([3]; Pre-Emergence at 62.5 g/ha) | damage to plant (100=total damage; 0=no damage) ECHCG ([3]; Pre-Emergence at 250 g/ha) | damage to plant (100=total damage; 0=no damage) IPOHE ([4]; Pre-Emergence at 62.5 g/ha) | damage to plant (100=total damage; 0=no damage) IPOHE ([4]; Pre-Emergence at 250 g/ha) | damage to plant (100=total damage; 0=no damage) AMARE ([5]; Pre-Emergence at 62.5 g/ha) | damage to plant (100=total damage; 0=no damage) AMARE ([5]; Pre-Emergence at 250 g/ha) | damage to plant (100=total damage; 0=no damage) ABUTH ([6]; Pre-Emergence at 62.5 g/ha) | damage to plant (100=total damage; 0=no damage) ABUTH ([6]; Pre-Emergence at 250 g/ha) | damage to plant (100=total damage; 0=no damage) ZEAMX ([7]; Post-Emergence at 15.625 g/ha) | damage to plant (100=total damage; 0=no damage) ZEAMX ([7]; Post-Emergence at 62.5 g/ha) | damage to plant (100=total damage; 0=no damage) ZEAMX ([7]; Post-Emergence at 250 g/ha) | damage to plant (100=total damage; 0=no damage) SETFA ([8]; Post-Emergence at 15.625 g/ha) | damage to plant (100=total damage; 0=no damage) SETFA ([8]; Post-Emergence at 62.5 g/ha) | damage to plant (100=total damage; 0=no damage) SETFA ([8]; Post-Emergence at 250 g/ha) | damage to plant (100=total damage; 0=no damage) ECHCG ([9]; Post-Emergence at 15.625 g/ha) | damage to plant (100=total damage; 0=no damage) ECHCG ([9]; Post-Emergence at 62.5 g/ha) | further results |
| --- | --- | --- | --- | --- | --- | --- | --- | --- | --- | --- | --- | --- | --- | --- | --- | --- | --- | --- | --- | --- | --- |
| CCn1nc([C@H]2CN(C)C(=O)[C@@H]2C(=O)Nc2ccc(F)nc2F)c2cccc(F)c21 [Compound 11] | 0 | 20 | 90 | 90 | 90 | 90 | 0 | 10 | 0 | 0 | 0 | 0 | 10 | 10 | 40 | 60 | 80 | 80 | 50 | 90 | damage to plant (100=total damage; 0=no damage) ZEAMX ([1]; Pre-Emergence at 15.625 g/ha): 0; damage to plant (100=total damage; 0=no damage) SETFA ([2]; Pre-Emergence at 15.625 g/ha): 80; damage to plant (100=total damage; 0=no damage) ECHCG ([3]; Pre-Emergence at 15.625 g/ha): 20; damage to plant (100=total damage; 0=no damage) IPOHE ([4]; Pre-Emergence at 15.625 g/ha): 0; damage to plant (100=total damage; 0=no damage) AMARE ([5]; Pre-Emergence at 15.625 g/ha): 0; damage to plant (100=total damage; 0=no damage) ABUTH ([6]; Pre-Emergence at 15.625 g/ha): 0; damage to plant (100=total damage; 0=no damage) ECHCG ([9]; Post-Emergence at 250 g/ha): 90; damage to plant (100=total damage; 0=no damage) IPOHE ([10]; Post-Emergence at 15.625 g/ha): 0; damage to plant (100=total damage; 0=no damage) IPOHE ([10]; Post-Emergence at 62.5 g/ha): 0; damage to plant (100=total damage; 0=no damage) IPOHE ([10]; Post-Emergence at 250 g/ha): 0; damage to plant (100=total damage; 0=no damage) AMARE ([11]; Post-Emergence at 15.625 g/ha): 0; damage to plant (100=total damage; 0=no damage) AMARE ([11]; Post-Emergence at 62.5 g/ha): 0; damage to plant (100=total damage; 0=no damage) AMARE ([11]; Post-Emergence at 250 g/ha): 0; damage to plant (100=total damage; 0=no damage) ABUTH ([12]; Post-Emergence at 15.625 g/ha): 0; damage to plant (100=total damage; 0=no damage) ABUTH ([12]; Post-Emergence at 62.5 g/ha): 0; damage to plant (100=total damage; 0=no damage) ABUTH ([12]; Post-Emergence at 250 g/ha): 0 |
| CN1CC(c2cc(C(F)(F)F)n(C)n2)C(C(=O)Nc2cccc(F)c2F)C1=O (stereo not drawn) [Compound 12] | 0 | 20 | 0 | 0 | 0 | 10 | 0 | 20 | 0 | 10 | 0 | 0 | 0 | 0 | 0 | 0 | 0 | 0 | 0 | 0 | damage to plant (100=total damage; 0=no damage) ZEAMX ([1]; Pre-Emergence at 15.625 g/ha): 0; damage to plant (100=total damage; 0=no damage) SETFA ([2]; Pre-Emergence at 15.625 g/ha): 0; damage to plant (100=total damage; 0=no damage) ECHCG ([3]; Pre-Emergence at 15.625 g/ha): 0; damage to plant (100=total damage; 0=no damage) IPOHE ([4]; Pre-Emergence at 15.625 g/ha): 0; damage to plant (100=total damage; 0=no damage) AMARE ([5]; Pre-Emergence at 15.625 g/ha): 0; damage to plant (100=total damage; 0=no damage) ABUTH ([6]; Pre-Emergence at 15.625 g/ha): 0; damage to plant (100=total damage; 0=no damage) ECHCG ([9]; Post-Emergence at 250 g/ha): 0; damage to plant (100=total damage; 0=no damage) IPOHE ([10]; Post-Emergence at 15.625 g/ha): 0; damage to plant (100=total damage; 0=no damage) IPOHE ([10]; Post-Emergence at 62.5 g/ha): 0; damage to plant (100=total damage; 0=no damage) IPOHE ([10]; Post-Emergence at 250 g/ha): 0; damage to plant (100=total damage; 0=no damage) AMARE ([11]; Post-Emergence at 15.625 g/ha): 0; damage to plant (100=total damage; 0=no damage) AMARE ([11]; Post-Emergence at 62.5 g/ha): 0; damage to plant (100=total damage; 0=no damage) AMARE ([11]; Post-Emergence at 250 g/ha): 0; damage to plant (100=total damage; 0=no damage) ABUTH ([12]; Post-Emergence at 15.625 g/ha): 0; damage to plant (100=total damage; 0=no damage) ABUTH ([12]; Post-Emergence at 62.5 g/ha): 0; damage to plant (100=total damage; 0=no damage) ABUTH ([12]; Post-Emergence at 250 g/ha): 0 |
| CCn1nc(C2CN(C)C(=O)C2C(=O)Nc2cccc(F)c2F)c2cccc(F)c21 (stereo not drawn) [Compound 15] | 0 | 0 | 0 | 0 | 0 | 0 | 0 | 0 | 0 | 0 | 0 | 0 | 0 | 0 | 0 | 0 | 0 | 0 | 0 | 0 | damage to plant (100=total damage; 0=no damage) ECHCG ([9]; Post-Emergence at 250 g/ha): 0; damage to plant (100=total damage; 0=no damage) IPOHE ([10]; Post-Emergence at 15.625 g/ha): 0; damage to plant (100=total damage; 0=no damage) IPOHE ([10]; Post-Emergence at 62.5 g/ha): 0; damage to plant (100=total damage; 0=no damage) IPOHE ([10]; Post-Emergence at 250 g/ha): 0; damage to plant (100=total damage; 0=no damage) AMARE ([11]; Post-Emergence at 15.625 g/ha): 0; damage to plant (100=total damage; 0=no damage) AMARE ([11]; Post-Emergence at 62.5 g/ha): 0; damage to plant (100=total damage; 0=no damage) AMARE ([11]; Post-Emergence at 250 g/ha): 0; damage to plant (100=total damage; 0=no damage) ABUTH ([12]; Post-Emergence at 15.625 g/ha): 0; damage to plant (100=total damage; 0=no damage) ABUTH ([12]; Post-Emergence at 62.5 g/ha): 0; damage to plant (100=total damage; 0=no damage) ABUTH ([12]; Post-Emergence at 250 g/ha): 0 |
| CN1CC(c2cc(C(F)(F)F)n(C)n2)C(C(=O)Nc2cccc(F)c2OC(F)F)C1=O (racemic) [Compound 23] | 20 | 40 | 90 | 90 | 90 | 90 | 10 | 20 | 0 | 0 | 0 | 0 | 0 | 20 | 80 | 60 | 80 | 80 | 50 | 80 | damage to plant (100=total damage; 0=no damage) ZEAMX ([1]; Pre-Emergence at 15.625 g/ha): 10; damage to plant (100=total damage; 0=no damage) SETFA ([2]; Pre-Emergence at 15.625 g/ha): 70; damage to plant (100=total damage; 0=no damage) ECHCG ([3]; Pre-Emergence at 15.625 g/ha): 70; damage to plant (100=total damage; 0=no damage) IPOHE ([4]; Pre-Emergence at 15.625 g/ha): 0; damage to plant (100=total damage; 0=no damage) AMARE ([5]; Pre-Emergence at 15.625 g/ha): 0; damage to plant (100=total damage; 0=no damage) ABUTH ([6]; Pre-Emergence at 15.625 g/ha): 0; damage to plant (100=total damage; 0=no damage) ECHCG ([9]; Post-Emergence at 250 g/ha): 80; damage to plant (100=total damage; 0=no damage) IPOHE ([10]; Post-Emergence at 15.625 g/ha): 0; damage to plant (100=total damage; 0=no damage) IPOHE ([10]; Post-Emergence at 62.5 g/ha): 10; damage to plant (100=total damage; 0=no damage) IPOHE ([10]; Post-Emergence at 250 g/ha): 30; damage to plant (100=total damage; 0=no damage) AMARE ([11]; Post-Emergence at 15.625 g/ha): 0; damage to plant (100=total damage; 0=no damage) AMARE ([11]; Post-Emergence at 62.5 g/ha): 0; damage to plant (100=total damage; 0=no damage) AMARE ([11]; Post-Emergence at 250 g/ha): 0; damage to plant (100=total damage; 0=no damage) ABUTH ([12]; Post-Emergence at 15.625 g/ha): 0; damage to plant (100=total damage; 0=no damage) ABUTH ([12]; Post-Emergence at 62.5 g/ha): 0; damage to plant (100=total damage; 0=no damage) ABUTH ([12]; Post-Emergence at 250 g/ha): 0 |
